Test results reported in PubChem BioAssay AID248 (DTP/NCI, 2004).
“And” between values parts separate entries of the source, which are not always exact repeats. Identical values can stand only once. Toxic doses and inconclusive results are not listed. Rule as the data show it: active = T/C of 150% or more; inactive = T/C below 125%.

System: L1210 leukemia ip in BDF1 mice, survival T/C
Test: NCI In Vivo Anticancer Drug Screen. Data for tumor model L1210 Leukemia (intraperitoneal) in B6D2F1 (BDF1) mice
Conditions: endpoint: mean survival time, higher = longer survival
How it was run: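 Transplantable tumor model; survival measured in treated vs vehicle control mice. Value = treated/control.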

[1] = dose: 100.0 mg/kg/injection, schedule: Q04DX002 (ip), vehicle: Klucel (hydroxypropylcellulose) (HPC)
[2] = dose: 200.0 mg/kg/injection, schedule: Q04DX002 (ip), vehicle: Klucel (hydroxypropylcellulose) (HPC)
[3] = dose: 400.0 mg/kg/injection, schedule: Q04DX002 (ip), vehicle: Klucel (hydroxypropylcellulose) (HPC)
[4] = dose: 100.0 mg/kg/injection, schedule: Q01DX001 (ip), vehicle: saline
[5] = dose: 200.0 mg/kg/injection, schedule: Q01DX001 (ip), vehicle: saline
[6] = dose: 50.0 mg/kg/injection, schedule: Q01DX009 (ip), vehicle: saline with Tween-80
[7] = dose: 100.0 mg/kg/injection, schedule: Q01DX009 (ip), vehicle: saline with Tween-80
[8] = dose: 200.0 mg/kg/injection, schedule: Q01DX009 (ip), vehicle: saline with Tween-80
[9] = dose: 100.0 mg/kg/injection, schedule: Q01DX009 (ip), vehicle: Klucel (hydroxypropylcellulose) (HPC)
[10] = dose: 100.0 mg/kg/injection, schedule: Q04DX003 (ip), vehicle: Klucel (hydroxypropylcellulose) (HPC)
[11] = dose: 200.0 mg/kg/injection, schedule: Q04DX003 (ip), vehicle: Klucel (hydroxypropylcellulose) (HPC)
[12] = dose: 400.0 mg/kg/injection, schedule: Q04DX003 (ip), vehicle: Klucel (hydroxypropylcellulose) (HPC)
[13] = dose: 100.0 mg/kg/injection, schedule: Q04DX003 (ip), vehicle: saline
[14] = dose: 200.0 mg/kg/injection, schedule: Q04DX003 (ip), vehicle: saline
[15] = dose: 400.0 mg/kg/injection, schedule: Q04DX003 (ip), vehicle: saline
[16] = dose: 100.0 mg/kg/injection, schedule: Q01DX001 (ip), vehicle: carboxymethylcellulose (CMC)
[17] = dose: 200.0 mg/kg/injection, schedule: Q01DX001 (ip), vehicle: carboxymethylcellulose (CMC)
[18] = dose: 400.0 mg/kg/injection, schedule: Q01DX001 (ip), vehicle: carboxymethylcellulose (CMC)
[19] = dose: 100.0 mg/kg/injection, schedule: Q04DX003 (ip), vehicle: saline with Tween-80
[20] = dose: 200.0 mg/kg/injection, schedule: Q04DX003 (ip), vehicle: saline with Tween-80
[21] = dose: 400.0 mg/kg/injection, schedule: Q04DX003 (ip), vehicle: saline with Tween-80
[22] = dose: 100.0 mg/kg/injection, schedule: Q01DX001 (ip), vehicle: Klucel (hydroxypropylcellulose) (HPC)
[23] = dose: 200.0 mg/kg/injection, schedule: Q01DX001 (ip), vehicle: Klucel (hydroxypropylcellulose) (HPC)
[24] = dose: 200.0 mg/kg/injection, schedule: Q01DX009 (ip), vehicle: Klucel (hydroxypropylcellulose) (HPC)
[25] = dose: 400.0 mg/kg/injection, schedule: Q01DX009 (ip), vehicle: Klucel (hydroxypropylcellulose) (HPC)

Measured: T/C

NC(=S)N/N=C\c1cccs1
inactive: [1] 96 % of control | [2] 107 % of control | [3] 102 % of control

Clc1ccccc1N1CCN(c2c3c(nc4ccccc24)CCCCC3)CC1
inactive: [4] 97 % of control | [5] 103 % of control | dose: 400.0 mg/kg/injection, schedule: Q01DX001 (ip), vehicle: saline 97 % of control

C(=C1\CCc2cc3ccccc3nc21)/c1ccccc1
inactive: [6] 98 % of control | [7] 95 % of control | [8] 88 % of control

C=CCOCC(O)C[As](=O)(O)c1ccc(Cl)cc1 (stereo not drawn)
inactive: dose: 1.56 mg/kg/injection, schedule: Q04DX003 (ip), vehicle: saline with Tween-80 104 % of control | dose: 3.13 mg/kg/injection, schedule: Q04DX003 (ip), vehicle: saline with Tween-80 104 % of control | dose: 6.25 mg/kg/injection, schedule: Q04DX003 (ip), vehicle: saline with Tween-80 112 % of control

[O-][n+]1ccc(CC(O)(C(F)(F)F)C(F)(F)F)cc1
inactive: dose: 25.0 mg/kg/injection, schedule: Q01DX009 (ip), vehicle: Klucel (hydroxypropylcellulose) (HPC) 93 % of control | dose: 50.0 mg/kg/injection, schedule: Q01DX009 (ip), vehicle: Klucel (hydroxypropylcellulose) (HPC) 92 % of control | [9] 97 % of control and 104 % of control | [10] 103 % of control | [11] 102 % of control | [12] 96 % of control

CN/C=C1\CCOC1=O
inactive: dose: 100.0 mg/kg/injection, schedule: Q04DX002 (ip), vehicle: saline 124 % of control | dose: 200.0 mg/kg/injection, schedule: Q04DX002 (ip), vehicle: saline 101 % of control | dose: 400.0 mg/kg/injection, schedule: Q04DX002 (ip), vehicle: saline 90 % of control

Nc1nc(-c2ccccc2)cc(-c2ccccc2)c1-c1ccccc1
inactive: [6] 108 % of control | [7] 112 % of control | [8] 104 % of control

CCCCNC(=O)COc1c(C)cccc1Cl
inactive: dose: 25.0 mg/kg/injection, schedule: Q04DX002 (ip), vehicle: saline with Tween-80 101 % of control | dose: 50.0 mg/kg/injection, schedule: Q04DX002 (ip), vehicle: saline with Tween-80 96 % of control | dose: 100.0 mg/kg/injection, schedule: Q04DX002 (ip), vehicle: saline with Tween-80 96 % of control

Cc1nc(N)[nH]c(=O)c1CC(C)O (stereo not drawn)
inactive: [13] 92 % of control | [14] 100 % of control | [15] 92 % of control

CCOC(=O)C(=O)c1cn(C)c2ccccc12
inactive: dose: 50.0 mg/kg/injection, schedule: Q01DX001 (ip), vehicle: carboxymethylcellulose (CMC) 109 % of control | [16] 106 % of control | [17] 106 % of control | [18] 101 % of control

COc1ccc(/C=N\NC(=O)c2ccncc2)cc1OC
inactive: dose: 50.0 mg/kg/injection, schedule: Q04DX002 (ip), vehicle: Klucel (hydroxypropylcellulose) (HPC) 101 % of control | [1] 106 % of control | [2] 109 % of control | [3] 103 % of control

COc1ccc(/C=N\NC(=O)OC(C)(C)C)c(OC)c1OC
inactive: dose: 100.0 mg/kg/injection, schedule: Q01DX009 (ip), vehicle: acetone 104 % of control | [19] 105 % of control | dose: 200.0 mg/kg/injection, schedule: Q01DX009 (ip), vehicle: acetone 94 % of control | [20] 112 % of control | dose: 400.0 mg/kg/injection, schedule: Q01DX009 (ip), vehicle: acetone 96 % of control | [21] 112 % of control

N/N=C1/CCc2ccccc21
inactive: [22] 90 % of control | [23] 112 % of control

CCOC(=O)Cn1c(=O)c2ccccc2c2ccccc21
inactive: [10] 97 % of control | [11] 104 % of control | [12] 101 % of control

O=[N+]([O-])c1cccc(S(=O)(=O)Oc2ccccc2)c1
inactive: [9] 102 % of control | [24] 95 % of control | [25] 101 % of control

CCOC1(OCC)C(C)C(c2ccccc2)C(c2ccccc2)C1C (stereo not drawn)
inactive: dose: 75.0 mg/kg/injection, schedule: Q01DX001 (ip), vehicle: saline 95 % of control | dose: 150.0 mg/kg/injection, schedule: Q01DX001 (ip), vehicle: saline 90 % of control | dose: 300.0 mg/kg/injection, schedule: Q01DX001 (ip), vehicle: saline 89 % of control

O=C(NCCN1C(=O)C2C3CCC(O3)C2C1=O)Nc1ccc([N+](=O)[O-])cc1[N+](=O)[O-] (stereo not drawn)
inactive: [1] 108 % of control | [2] 101 % of control | [3] 108 % of control

c1ccc(CNC(Cc2ccccc2)c2ccc(OCc3ccccc3)cc2)cc1 (stereo not drawn)
inactive: [9] 93 % of control | [24] 89 % of control | [25] 89 % of control

CCOC(=O)CCCc1ccc(N=NN(C)CC(C)C)cc1
inactive: [16] 107 % of control | dose: 100.0 mg/kg/injection, schedule: Q01DX009 (ip), vehicle: carboxymethylcellulose (CMC) 116 % of control | [17] 102 % of control | dose: 200.0 mg/kg/injection, schedule: Q01DX009 (ip), vehicle: carboxymethylcellulose (CMC) 107 % of control | [18] 113 % of control

NC(N)=N/N=C(\c1ccc(Br)cc1)C1CC1
inactive: dose: 15.0 mg/kg/injection, schedule: Q01DX Z (ip), vehicle: carboxymethylcellulose (CMC) 96 % of control | dose: 30.0 mg/kg/injection, schedule: Q01DX Z (ip), vehicle: carboxymethylcellulose (CMC) 95 % of control | dose: 30.0 mg/kg/injection, schedule: Q01DX Z (oral), vehicle: carboxymethylcellulose (CMC) 100 % of control | dose: 60.0 mg/kg/injection, schedule: Q01DX Z (ip), vehicle: carboxymethylcellulose (CMC) 96 % of control | dose: 60.0 mg/kg/injection, schedule: Q01DX Z (oral), vehicle: carboxymethylcellulose (CMC) 115 % of control | dose: 120.0 mg/kg/injection, schedule: Q01DX Z (oral), vehicle: carboxymethylcellulose (CMC) 107 % of control and 121 % of control | dose: 240.0 mg/kg/injection, schedule: Q01DX Z (oral), vehicle: carboxymethylcellulose (CMC) 102 % of control and 111 % of control

C/C(=N/NC(N)=S)c1ccc[nH]1
inactive: [22] 108 % of control | [23] 93 % of control

O=C(CCCC(=O)NNC(=S)NC1CCCCC1)NNC(=S)NC1CCCCC1
inactive: dose: 50.0 mg/kg/injection, schedule: Q01DX001 (ip), vehicle: saline 96 % of control | [4] 96 % of control | [5] 93 % of control

CN(CC(=O)O)C(=O)CN=Cc1ccccc1
inactive: [13] 96 % of control | [14] 97 % of control | [15] 97 % of control

O=C(CSc1cc(Cl)c(Cl)cc1Cl)Nc1ccc(Cl)cc1Cl
inactive: dose: 100.0 mg/kg/injection, schedule: Q01DX001 (ip), vehicle: saline with Tween-80 87 % of control | dose: 200.0 mg/kg/injection, schedule: Q01DX001 (ip), vehicle: saline with Tween-80 93 % of control | dose: 400.0 mg/kg/injection, schedule: Q01DX001 (ip), vehicle: saline with Tween-80 93 % of control

O=C1C(Cl)=C(Nc2ccccc2)C(=O)C(Cl)=C1Nc1ccccc1
inactive: [7] 87 % of control | [19] 88 % of control | [8] 87 % of control | [20] 92 % of control | dose: 400.0 mg/kg/injection, schedule: Q01DX009 (ip), vehicle: saline with Tween-80 94 % of control | [21] 95 % of control

CC1(C)OC2C(C=O)OC(n3cnc4c(N)ncnc43)C2O1 (stereo not drawn)
inactive: dose: 100.0 mg/kg/injection, schedule: Q04DX003 (ip), vehicle: alcohol 102 % of control | dose: 200.0 mg/kg/injection, schedule: Q04DX003 (ip), vehicle: alcohol 102 % of control | dose: 400.0 mg/kg/injection, schedule: Q04DX003 (ip), vehicle: alcohol 96 % of control
